Source: PubChem BioAssay (NCI)
Several values for one entry are separate records, joined by “and”; a condition that tells them apart may be missing. Identical values can stand only once.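 Test compounds were applied to cells in 96-well plates for 48 hours at 5 doses. Here, GI50 denotes the concentration required for 50% inhibition of growth. TGI marks complete inhibition of growth.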

Experiments:
Assay in all cases: NCI-60 cell line screen, 48 h
[1] = test system: M14 melanoma
[2] = test system: K-562 leukemia
[3] = test system: CAKI-1 renal
[4] = test system: OVCAR-3 ovarian
[5] = test system: ACHN renal
[6] = test system: NCI-H23 lung
[7] = test system: 786-0 renal
[8] = test system: HCT-15 colon
[9] = test system: MOLT-4 leukemia
[10] = test system: CCRF-CEM leukemia

FC(F)c1nc2ccccc2n1-c1nc(N2CCOCC2)nc(N2CCOCC2)n1
GI50 [1]: 0.566 µM and 0.464 µM | GI50 [2]: 4.09 µM and 5.15 µM | TGI [2]: > 100 µM | GI50 [3]: 0.197 µM and 0.268 µM | TGI [3]: 4.25 µM and 2.35 µM | GI50 [4]: 0.204 µM and 0.281 µM | TGI [4]: 3.44 µM and 5.67 µM | GI50 [5]: 0.299 µM and 0.397 µM | TGI [5]: > 100 µM | GI50 [6]: 0.492 µM and 0.617 µM | GI50 [7]: 0.146 µM and 0.223 µM | TGI [7]: 1.43 µM and 2.94 µM | GI50 [8]: 0.389 µM and 0.479 µM | TGI [8]: > 100 µM | GI50 [9]: 0.347 µM | TGI [9]: > 100 µM | GI50 [10]: 0.495 µM and 0.556 µM | TGI [10]: > 100 µM

CCOC(=O)c1sc(-c2ccc(OS(=O)(=O)c3ccc(Br)s3)c(C=O)c2)nc1C
GI50 [1]: 3.22 µM | TGI [1]: 11.3 µM | GI50 [2]: 3.17 µM | TGI [2]: > 100 µM | GI50 [3]: 2.86 µM | TGI [3]: 14.5 µM | GI50 [4]: 2.48 µM | TGI [4]: 6.71 µM | GI50 [5]: 3.02 µM | TGI [5]: 9.05 µM | GI50 [6]: 3.37 µM | TGI [6]: 13.7 µM | GI50 [7]: 2.75 µM | TGI [7]: 8.16 µM | GI50 [8]: 2.61 µM | TGI [8]: 7.79 µM | GI50 [9]: 2.73 µM | TGI [9]: 8.3 µM | GI50 [10]: 2.36 µM | TGI [10]: 9.16 µM

COc1cc(-c2cc3ncccc3c3nc(N)c4cccnc4c23)cc(OC)c1OC
GI50 [1]: 0.284 µM | TGI [1]: 3.02 µM | GI50 [2]: 0.169 µM | TGI [2]: 14.5 µM | GI50 [3]: 0.4 µM | TGI [3]: 22.6 µM | GI50 [4]: 0.229 µM | TGI [4]: 2.68 µM | GI50 [5]: 0.769 µM | TGI [5]: 19.1 µM | GI50 [6]: 1.28 µM | TGI [6]: 51.2 µM | GI50 [7]: 0.511 µM | TGI [7]: 10.8 µM | GI50 [8]: 0.44 µM | TGI [8]: 61.9 µM | GI50 [9]: 0.604 µM | TGI [9]: 8.05 µM | GI50 [10]: 0.481 µM | TGI [10]: 30.2 µM

O=C(CC(c1ccccc1)c1c(O)c2ccccc2oc1=O)c1ccccc1 (stereo not drawn)
TGI [1]: > 100 µM | TGI [2]: > 100 µM | TGI [3]: 46.4 µM | TGI [4]: > 81.9 µM | TGI [5]: > 100 µM | TGI [6]: > 100 µM | TGI [7]: > 100 µM | TGI [8]: > 100 µM | TGI [9]: > 100 µM | TGI [10]: > 100 µM

CCCC(=O)NC1=C(Cl)C(=O)c2ccccc2C1=O
TGI [1]: 13 µM | TGI [2]: 7.43 µM | TGI [3]: 10.1 µM | TGI [4]: 8.01 µM | TGI [5]: 3.83 µM | TGI [6]: 10.3 µM | TGI [7]: 8.92 µM | TGI [8]: 12.2 µM | TGI [9]: 7.2 µM | TGI [10]: > 100 µM

Cc1cc(S(=O)(=O)Nc2nc3cscc3c(=O)n2Cc2ccccc2)c(S)cc1Cl
GI50 [1]: 61.3 µM | TGI [1]: > 100 µM | GI50 [2]: 74.1 µM | TGI [2]: > 100 µM | GI50 [3]: 45.4 µM | TGI [3]: > 100 µM | GI50 [4]: 32.2 µM | TGI [4]: > 100 µM | GI50 [5]: 52.6 µM | TGI [5]: > 100 µM | GI50 [6]: 51.5 µM | TGI [6]: > 100 µM | GI50 [7]: 24.3 µM | TGI [7]: > 100 µM | GI50 [8]: 56.8 µM | TGI [8]: > 100 µM | GI50 [9]: 3.94 µM | TGI [9]: 32.5 µM | GI50 [10]: 14 µM | TGI [10]: > 100 µM

CCCNNC(=O)/C=C/c1ccc(CNCCc2c(C)[nH]c3ccccc23)cc1
GI50 [1]: 0.023 µM | TGI [1]: 1.94 µM | GI50 [2]: 0.0111 µM | TGI [2]: 3.78 µM | GI50 [3]: 0.0369 µM | TGI [3]: 0.123 µM | GI50 [4]: 0.0433 µM | TGI [4]: 0.161 µM | GI50 [5]: 0.0284 µM | TGI [5]: 0.116 µM | GI50 [6]: 0.0545 µM | TGI [6]: 3.5 µM | GI50 [7]: 0.057 µM | TGI [7]: 1.2 µM | GI50 [8]: 0.0954 µM | TGI [8]: 3.16 µM | GI50 [9]: 0.0152 µM | TGI [9]: 4.09 µM | GI50 [10]: 0.0138 µM | TGI [10]: 6.43 µM

Cc1ccc(C)c2c1C(O)(C#Cc1ccccc1)c1ccccc1C2(O)C#Cc1ccccc1 (stereo not drawn)
GI50 [1]: 3.6 µM | TGI [1]: > 82.5 µM | GI50 [2]: 4.4 µM | TGI [2]: > 100 µM | GI50 [3]: 2.38 µM | TGI [3]: > 30.7 µM | GI50 [4]: 3.12 µM | TGI [4]: > 34.7 µM | GI50 [5]: 2.84 µM | TGI [5]: > 100 µM | GI50 [6]: 3.23 µM | TGI [6]: > 29.5 µM | GI50 [7]: 3.72 µM | TGI [7]: > 35.7 µM | GI50 [8]: 1.03 µM | TGI [8]: > 100 µM | GI50 [9]: 2.5 µM | TGI [9]: > 23.3 µM | GI50 [10]: 2.36 µM | TGI [10]: > 25.4 µM
